# Experiments:
# T cells = assay: Th2 differentiation (IL-4 production by differentiated mouse spleen T cells, ELISA); assay type: cell-based; details: inhibition of Th2 differentiation (IL-4 production, ELISA), C57BL/6 mouse spleen T cells
# Experimental: Measurement of Th2 Differentiation
# T cells were prepared by removing nylon wool (Wako Pure Chemical Industries)-adhering cells from C57BL/6 mouse (Charles River Japan) spleen cells. Using a 96 well plate to which an anti-CD3ε antibody (10 μg/ml) (Sederlane) had been immobilized in advance, T cells (2×10^5 cells/0.2 ml) were inoculated under stimulation with anti-CD28 antibody (1 μg/ml) (Pharmingen), IL-2 (10 ng/ml) (Peprotech) and IL-4 (10 ng/ml) (Peprotech). After 2 days of the culturing, total volume of the cell suspension was diluted to 2 ml with a medium containing IL-2 (10 ng/ml) and IL-4 (10 ng/ml). The differentiation was induced by further carrying out the culturing for 3 days. By counting the cell density, the cells after differentiation were adjusted to 1×10^6 cells/ml and inoculated into a 96 well plate immobilized with the anti-CD3 ε antibody, in order to induce IL-4 production. The supernatant after 24 hours of the stimulation was recovered, and the IL-4 production was determined by an ELISA method. The antibody used in the ELISA was purchased from Pharmingen. Also, an HRPO-labeled streptoavidin (Amersham Pharmacia) was used in the detection of biotinylated antibody, and a peroxidase color developing reagent (Sumitomo Bakelite) was used in the HRPO color development. In the case of the evaluation of compounds, compound dilutions were added to the wells before the addition of T cells, at the time of the dilution 2 days later, compounds equivalent to the initial concentration were added. Also, regarding the dilution of compounds, dilution was carried out using 10% FBS-containing RPMI 1640 such that the final concentration of DMSO in which each compound was dissolved became 0.1% or less. Inhibitory activity of each tested compound was evaluated in which the IL-4 production when DMSO was added instead of the compound was regarded as 100%, and the IL-4 production when anti-CD28 antibody and IL-4 were not added as 0%.
# STAT 6 = biological target: T1, STAT 6 (Mus musculus, UniProt P52633); assay: STAT 6-dependent reporter activity (IL-4-stimulated CI/FW4 luciferase reporter cell); assay type: cell-based, human
# T1 construct: An STAT 6 reporter cell CI/FW4 was constructed by the above operation; endogenous in cells; host or cells: CI/FW4 (FW4 cell stably carrying the pGL2-CI/bs luciferase reporter)
# T1 sequence (P52633 1-837): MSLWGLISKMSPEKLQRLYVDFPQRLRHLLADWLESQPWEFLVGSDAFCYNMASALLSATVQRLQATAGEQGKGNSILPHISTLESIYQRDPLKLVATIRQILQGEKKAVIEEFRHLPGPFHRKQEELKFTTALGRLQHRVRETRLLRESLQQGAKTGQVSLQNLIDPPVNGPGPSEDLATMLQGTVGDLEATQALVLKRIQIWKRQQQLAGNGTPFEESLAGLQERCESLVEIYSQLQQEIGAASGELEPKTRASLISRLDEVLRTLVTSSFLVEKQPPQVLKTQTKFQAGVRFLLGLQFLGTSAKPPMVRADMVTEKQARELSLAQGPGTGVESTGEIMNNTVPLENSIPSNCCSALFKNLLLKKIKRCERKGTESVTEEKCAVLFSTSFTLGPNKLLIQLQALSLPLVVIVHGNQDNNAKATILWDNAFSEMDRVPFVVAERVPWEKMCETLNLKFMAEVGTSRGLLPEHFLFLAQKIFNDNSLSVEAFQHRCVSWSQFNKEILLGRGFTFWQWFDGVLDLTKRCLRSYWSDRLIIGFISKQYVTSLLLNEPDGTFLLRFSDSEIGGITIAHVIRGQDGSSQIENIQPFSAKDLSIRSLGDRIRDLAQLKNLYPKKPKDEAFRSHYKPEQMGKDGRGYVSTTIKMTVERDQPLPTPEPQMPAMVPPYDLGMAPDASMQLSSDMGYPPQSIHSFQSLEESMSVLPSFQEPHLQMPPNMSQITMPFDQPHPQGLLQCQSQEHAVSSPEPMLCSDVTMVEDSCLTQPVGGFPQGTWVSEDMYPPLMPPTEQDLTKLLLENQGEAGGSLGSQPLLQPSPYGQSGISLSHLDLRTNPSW
# Experimental: Measurement of STAT 6-Dependent Reporter Activity 1) Construction of STAT 6 Reactive Reporter Plasmid A STAT 6 reporter plasmid pGL2-CI was prepared by the following method. […] Also, […] sequence DNA molecules (SEQ ID NOs:3 and 4) contained in the adenovirus major late promoter were annealed and inserted into BglII and HindIII sites of the same vector. Thereafter, pGL2-CI/bs was constructed by inserting the blasticidin resistance gene of pUCSV-BD (Funakoshi) into BamHI site of the constructed pGL2-CI. 2) Construction of STAT 6 Reporter Cell Gene transfer of […] into a human IL-4 reactive cell FW4 cell (Mol. Cell. Biol., 14: 5433-5440) was carried out by the electroporation method (320 V, 960 μF/0.4 cm cuvette (Nippon Bio-Rad Laboratories)), and 6 μg/ml of blasticidin (Funakoshi) was added 40 hours thereafter to select a resistant cell. Confirmation of constant transfer of the reporter plasmid was carried out by detecting luciferase induce by IL-4 stimulation. An STAT 6 reporter cell CI/FW4 was constructed by the above operation. 3) STAT Reporter Assay Using CI/FW4 Cell Stimulation of the CI/FW4 cell (1×10^4 cells/0.1 ml) with 10 ng/ml of human IL-4 (Genzyme Techne) was carried out using a white 96 well plate (Nunc). In the case of the evaluation of compounds, compound dilutions were added to the wells before inoculating the cells into the 96 well plate. […] Thereafter, 50 μl of a luciferase substrate solution (10 mM Tris-HCl pH 7.8, 5 mM luciferin, 2 mM coenzyme A, 2 mM ATP, 0.5 mM MgCl2 and 2 mM Mg(OH)2) was added, followed by stirring for 1 minute. Then, the luciferase activity was measured using ML3000 luminometer (Dynatech Laboratories, Inc). Inhibitory activities of tested compounds were evaluated in which the luminescence intensity (relative light unit: […] The results are shown in the following Table 26.
"inhibition at 0.1 µM (STAT 6; inhibition ratio at 0.1 μM compound, IL-4-stimulated CI/FW4 cell, luciferase) [%]","inhibition at 1 µM (STAT 6; inhibition ratio at 1 μM compound, IL-4-stimulated CI/FW4 cell, luciferase) [%]","inhibition of STAT 6-dependent reporter activity (activity similar to the compounds of Table 26) (STAT 6; CI/FW4 cell, 10 ng/ml human IL-4, luciferase)",SMILES,Inh (%) (T cells)
–,–,–,"Cc1cccc(Nc2nc(N[C@@H]3CCCC[C@@H]3N)ncc2C(N)=O)c1 (relative stereo) [ref 2, 2-(cis-2-aminocyclohexylamino)-4-(3-methylanilino)pyrimidine-5-carboxamide, reference compound]",0
89,100,–,"NC(=O)c1cnc(NCCc2ccc(O)c(Cl)c2)nc1NCc1ccccc1 [Example 1, 4-benzylamino-2-{[2-(3-chloro-4-hydroxyphenyl)ethyl]amino}pyrimidine-5-carboxamide]",88
–,–,good activity,NC(=O)c1cnc(NCCc2cc(Cl)c(O)c(Cl)c2)nc1NCc1ccccc1 [Example 16],82
–,–,–,"Cc1cccc(Nc2nc(NCCN)ncc2C(N)=O)c1 [ref 1, 2-(2-aminoethylamino)-4-(3-methylanilino)pyrimidine-5-carboxamide, reference compound]",0
